How the values were obtained:
Format in all cases: in vivo
[1] = tested on: blackgrass (Alopecurus myosuroides); test: Test B postemergence plant response; conditions: 0 to 100 scale, 0 no effect, 100 complete control
How it was run: (§1)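 Injury was assessed visually about 10 days after treatment, scored from 0 (no effect) to 100 (complete control) by comparison with untreated controls. Test chemicals had been applied postemergence to potted plants at the one- to two-leaf stage, grown in loam soil and sand in a greenhouse.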

[2] = tested on: galium (catchweed bedstraw, Galium aparine); test: Test B postemergence plant response; conditions: 0 to 100 scale, 0 no effect, 100 complete control
How it was run: as §1

[3] = tested on: corn (Zea mays); test: Test B pre-/postemergence plant response; conditions: 0 to 100 scale, 0 no effect, 100 complete control
Description: (§2) Seeds of plant species selected from bamyardgrass (Echinochloa crus-galli), kochia (Kochia scoparia), ragweed (common ragweed, Ambrosia elatior), Italian ryegrass (Lolium multiflorum), large (Lg) crabgrass (Digitaria sanguinalis), giant foxtail (Setaria faberii), momingglory (Ipomoea spp.), pigweed (Amaranthus retroflexus), velvetleaf (Abutilon theophrasti), wheat (Triticum aestivum), and corn (Zea mays) were planted into a blend of loam soil and sand and treated preemergence with a directed soil spray using test chemicals formulated in a non-phytotoxic solvent mixture which included a surfactant. At the same time, plants selected from these crop and weed species and also blackgrass (Alopecurus myosuroides), and galium (catchweed bedstraw, Galium aparine) were planted in pots containing the same blend of loam soil and sand and treated with postemergence applications of test chemicals formulated in the same manner. Plants ranged in height from 2 to 10 cm and were in the one- to two-leaf stage for the postemergence treatment. Treated plants and untreated controls were maintained in a greenhouse for approximately 10 days, after which time all treated plants were compared to untreated controls and visually evaluated for injury. Plant response ratings, summarized in Table B, are based on a 0 to 100 scale where 0 is no effect and 100 is complete control. A dash (-) response means no test result.

[4] = tested on: kochia (Kochia scoparia); test: Test B pre-/postemergence plant response
Description: as §2

[5] = tested on: giant foxtail (Setaria faberii); test: Test B pre-/postemergence plant response
Description: as §2

[6] = tested on: ragweed (common ragweed, Ambrosia elatior); test: Test B pre-/postemergence plant response
Description: as §2

[7] = tested on: barnyardgrass (Echinochloa crus-galli); test: Test B pre-/postemergence plant response
Description: as §2

[8] = tested on: pigweed (Amaranthus retroflexus); test: Test B pre-/postemergence plant response
Description: as §2

[9] = tested on: Italian ryegrass (Lolium multiflorum); test: Test B pre-/postemergence plant response
Description: as §2

[10] = tested on: wheat (Triticum aestivum); test: Test B pre-/postemergence plant response; conditions: 0 to 100 scale, 0 no effect, 100 complete control
Description: as §2

[11] = tested on: barnyardgrass (Echinochloa crus-galli); test: Test C flooded paddy test plant response; conditions: Flood, 250 g ai/ha; scale of 0 to 100 where 0 is no effect and 100 is complete control; 13 to 15 days
How it was run: (§3)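 2-leaf plants; flood 3 cm, cpd into paddy water; greenhouse 13–15 d; visual score vs untreated, 0 = no effect, 100 = complete control; dash = no result.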

[12] = tested on: small-flower umbrella sedge (Cyperus difformis); test: Test C flooded paddy test plant response; conditions: Flood, 250 g ai/ha; scale of 0 to 100 where 0 is no effect and 100 is complete control; 13 to 15 days
How it was run: as §3

[13] = tested on: rice (Oryza sativa); test: Test C flooded paddy test plant response; conditions: Flood, 250 g ai/ha; scale of 0 to 100 where 0 is no effect and 100 is complete control; 13 to 15 days
How it was run: as §3

[14] = tested on: ducksalad (Heteranthera limosa); test: Test C flooded paddy test plant response; conditions: Flood, 250 g ai/ha; scale of 0 to 100 where 0 is no effect and 100 is complete control; 13 to 15 days
How it was run: as §3

[15] = 31 g ai/ha, Postemergence, 0 to 100 scale, 0 no effect, 100 complete control
[16] = 125 g ai/ha, postemergence, 0 to 100 scale, 0 no effect, 100 complete control
[17] = Preemergence, 31 g ai/ha, 0 to 100 scale (0 no effect, 100 complete control)
[18] = Preemergence, 125 g ai/ha, 0 to 100 scale where 0 is no effect and 100 is complete control
[19] = 31 g ai/ha, Preemergence, 0 to 100 scale where 0 is no effect and 100 is complete control

Fc1cc(F)c(-c2cc(C(F)F)no2)c(Oc2ncc(Cl)cn2)c1 [Compound 107]
Plant response rating, Blackgrass ([1]; 31 g ai/ha, Postemergence): 0
Plant response rating, Blackgrass ([1]; 125 g ai/ha, postemergence): 0
Plant response rating, Galium ([2]; 31 g ai/ha, Postemergence): 0
Plant response rating, Galium ([2]; 125 g ai/ha, postemergence): 0
Plant response rating, Corn ([3]; 31 g ai/ha, Postemergence): 0
Plant response rating, Corn ([3]; 125 g ai/ha, postemergence): 0
Plant response rating, Kochia [4, 15]: 0
Plant response rating, Kochia [4, 16]: 0
Kochia plant response rating [4, 17]: 0
Plant response rating, Kochia [4, 18]: 0
Plant response rating, Foxtail, Giant [5, 15]: 0
Plant response rating, Foxtail, Giant [5, 16]: 0
Foxtail, Giant plant response rating [5, 17]: 0
Plant response rating, Foxtail, Giant [5, 18]: 0
Plant response rating, Ragweed [6, 15]: 0
Plant response rating, Ragweed [6, 16]: 0
Ragweed plant response rating [6, 17]: 0
Plant response rating, Ragweed [6, 18]: 0
Plant response rating, Barnyardgrass [7, 15]: 0
Plant response rating, Barnyardgrass [7, 16]: 0
Barnyardgrass plant response rating [7, 17]: 0
Plant response rating, Barnyardgrass [7, 18]: 0
Plant response rating, Pigweed [8, 15]: 0
Plant response rating, Pigweed [8, 16]: 0
Pigweed plant response rating [8, 17]: 0
Plant response rating, Pigweed [8, 18]: 0
Plant response rating, Ryegrass, Italian [9, 15]: 0
Plant response rating, Ryegrass, Italian [9, 16]: 0
Ryegrass, Italian plant response rating [9, 17]: 0
Plant response rating, Ryegrass, Italian [9, 18]: 0
Plant response rating, Wheat ([10]; 31 g ai/ha, Postemergence): 0
Plant response rating, Wheat ([10]; 125 g ai/ha, postemergence): 0
Barnyardgrass plant response rating [11]: 0
Sedge, Umbrella plant response rating [12]: 0
Rice plant response rating [13]: 0
Ducksalad plant response rating [14]: 0

CCOC(OCC)c1cc(-c2ccccc2Oc2ncc(Cl)cn2)on1 [Compound 108]
Plant response rating, Blackgrass ([1]; 31 g ai/ha, Postemergence): 0
Plant response rating, Blackgrass ([1]; 125 g ai/ha, postemergence): 0
Plant response rating, Galium ([2]; 31 g ai/ha, Postemergence): 30
Plant response rating, Galium ([2]; 125 g ai/ha, postemergence): 50
Plant response rating, Corn ([3]; 31 g ai/ha, Postemergence): 0
Plant response rating, Corn ([3]; 125 g ai/ha, postemergence): 10
Plant response rating, Kochia [4, 15]: 0
Plant response rating, Kochia [4, 19]: 0
Plant response rating, Kochia [4, 16]: 0
Plant response rating, Kochia [4, 18]: 0
Plant response rating, Foxtail, Giant [5, 15]: 0
Plant response rating, Foxtail, Giant [5, 19]: 0
Plant response rating, Foxtail, Giant [5, 16]: 0
Plant response rating, Foxtail, Giant [5, 18]: 0
Plant response rating, Ragweed [6, 15]: 0
Plant response rating, Ragweed [6, 19]: 0
Plant response rating, Ragweed [6, 16]: 0
Plant response rating, Ragweed [6, 18]: 0
Plant response rating, Barnyardgrass [7, 15]: 0
Plant response rating, Barnyardgrass [7, 19]: 0
Plant response rating, Barnyardgrass [7, 16]: 0
Plant response rating, Barnyardgrass [7, 18]: 0
Plant response rating, Pigweed [8, 15]: 0
Plant response rating, Pigweed [8, 19]: 0
Plant response rating, Pigweed [8, 16]: 0
Plant response rating, Pigweed [8, 18]: 0
Plant response rating, Ryegrass, Italian [9, 15]: 0
Plant response rating, Ryegrass, Italian [9, 19]: 0
Plant response rating, Ryegrass, Italian [9, 16]: 0
Plant response rating, Ryegrass, Italian [9, 18]: 0
Plant response rating, Wheat ([10]; 31 g ai/ha, Postemergence): 0
Plant response rating, Wheat ([10]; 125 g ai/ha, postemergence): 0
Barnyardgrass plant response rating [11]: 0
Sedge, Umbrella plant response rating [12]: 0
Rice plant response rating [13]: 0
Ducksalad plant response rating [14]: 0

COc1cccc(Oc2ncc(Cl)cn2)c1-c1cc(C(F)F)on1 [Compound 109]
Plant response rating, Blackgrass ([1]; 31 g ai/ha, Postemergence): 50
Plant response rating, Blackgrass ([1]; 125 g ai/ha, postemergence): 90
Plant response rating, Galium ([2]; 31 g ai/ha, Postemergence): 50
Plant response rating, Galium ([2]; 125 g ai/ha, postemergence): 100
Plant response rating, Corn ([3]; 31 g ai/ha, Postemergence): 10
Plant response rating, Corn ([3]; 125 g ai/ha, postemergence): 60
Plant response rating, Kochia [4, 15]: 0
Plant response rating, Kochia [4, 19]: 0
Plant response rating, Kochia [4, 16]: 30
Plant response rating, Kochia [4, 18]: 30
Plant response rating, Foxtail, Giant [5, 15]: 60
Plant response rating, Foxtail, Giant [5, 19]: 80
Plant response rating, Foxtail, Giant [5, 16]: 90
Plant response rating, Foxtail, Giant [5, 18]: 100
Plant response rating, Ragweed [6, 15]: 60
Plant response rating, Ragweed [6, 19]: 20
Plant response rating, Ragweed [6, 16]: 90
Plant response rating, Ragweed [6, 18]: 70
Plant response rating, Barnyardgrass [7, 15]: 60
Plant response rating, Barnyardgrass [7, 19]: 40
Plant response rating, Barnyardgrass [7, 16]: 90
Plant response rating, Barnyardgrass [7, 18]: 100
Plant response rating, Pigweed [8, 15]: 80
Plant response rating, Pigweed [8, 19]: 90
Plant response rating, Pigweed [8, 16]: 100
Plant response rating, Pigweed [8, 18]: 100
Plant response rating, Ryegrass, Italian [9, 15]: 10
Plant response rating, Ryegrass, Italian [9, 19]: 0
Plant response rating, Ryegrass, Italian [9, 16]: 50
Plant response rating, Ryegrass, Italian [9, 18]: 10
Plant response rating, Wheat ([10]; 31 g ai/ha, Postemergence): 0
Plant response rating, Wheat ([10]; 125 g ai/ha, postemergence): 10
Barnyardgrass plant response rating [11]: 30
Sedge, Umbrella plant response rating [12]: 80
Rice plant response rating [13]: 35
Ducksalad plant response rating [14]: 85

COc1cccc(Oc2ncc(Cl)cn2)c1-c1cc(C)no1 [Compound 110]
Plant response rating, Blackgrass ([1]; 31 g ai/ha, Postemergence): 0
Plant response rating, Blackgrass ([1]; 125 g ai/ha, postemergence): 40
Plant response rating, Galium ([2]; 31 g ai/ha, Postemergence): 20
Plant response rating, Galium ([2]; 125 g ai/ha, postemergence): 70
Plant response rating, Corn ([3]; 31 g ai/ha, Postemergence): 0
Plant response rating, Corn ([3]; 125 g ai/ha, postemergence): 10
Plant response rating, Kochia [4, 15]: 10
Plant response rating, Kochia [4, 19]: 0
Plant response rating, Kochia [4, 16]: 50
Plant response rating, Kochia [4, 18]: 0
Plant response rating, Foxtail, Giant [5, 15]: 0
Plant response rating, Foxtail, Giant [5, 19]: 0
Plant response rating, Foxtail, Giant [5, 16]: 70
Plant response rating, Foxtail, Giant [5, 18]: 70
Plant response rating, Ragweed [6, 15]: 30
Plant response rating, Ragweed [6, 19]: 0
Plant response rating, Ragweed [6, 16]: 40
Plant response rating, Barnyardgrass [7, 15]: 0
Plant response rating, Barnyardgrass [7, 19]: 0
Plant response rating, Barnyardgrass [7, 16]: 50
Plant response rating, Barnyardgrass [7, 18]: 40
Plant response rating, Pigweed [8, 15]: 10
Plant response rating, Pigweed [8, 19]: 10
Plant response rating, Pigweed [8, 16]: 30
Plant response rating, Ryegrass, Italian [9, 15]: 0
Plant response rating, Ryegrass, Italian [9, 19]: 0
Plant response rating, Ryegrass, Italian [9, 16]: 0
Plant response rating, Wheat ([10]; 31 g ai/ha, Postemergence): 0
Plant response rating, Wheat ([10]; 125 g ai/ha, postemergence): 0
Barnyardgrass plant response rating [11]: 0
Sedge, Umbrella plant response rating [12]: 60
Rice plant response rating [13]: 0
Ducksalad plant response rating [14]: 30

COc1cccc(Oc2ncc(F)cn2)c1-c1cc(C)no1 [Compound 111]
Plant response rating, Blackgrass ([1]; 31 g ai/ha, Postemergence): 0
Plant response rating, Blackgrass ([1]; 125 g ai/ha, postemergence): 40
Plant response rating, Galium ([2]; 31 g ai/ha, Postemergence): 10
Plant response rating, Galium ([2]; 125 g ai/ha, postemergence): 20
Plant response rating, Corn ([3]; 31 g ai/ha, Postemergence): 0
Plant response rating, Corn ([3]; 125 g ai/ha, postemergence): 10
Plant response rating, Kochia [4, 15]: 20
Plant response rating, Kochia [4, 19]: 0
Plant response rating, Kochia [4, 16]: 30
Plant response rating, Kochia [4, 18]: 10
Plant response rating, Foxtail, Giant [5, 15]: 0
Plant response rating, Foxtail, Giant [5, 19]: 0
Plant response rating, Foxtail, Giant [5, 16]: 60
Plant response rating, Foxtail, Giant [5, 18]: 50
Plant response rating, Ragweed [6, 15]: 10
Plant response rating, Ragweed [6, 19]: 0
Plant response rating, Ragweed [6, 16]: 20
Plant response rating, Barnyardgrass [7, 15]: 0
Plant response rating, Barnyardgrass [7, 19]: 0
Plant response rating, Barnyardgrass [7, 16]: 10
Plant response rating, Barnyardgrass [7, 18]: 20
Plant response rating, Pigweed [8, 15]: 0
Plant response rating, Pigweed [8, 19]: 10
Plant response rating, Pigweed [8, 16]: 20
Plant response rating, Ryegrass, Italian [9, 15]: 0
Plant response rating, Ryegrass, Italian [9, 19]: 0
Plant response rating, Ryegrass, Italian [9, 16]: 0
Plant response rating, Wheat ([10]; 31 g ai/ha, Postemergence): 0
Plant response rating, Wheat ([10]; 125 g ai/ha, postemergence): 0
Barnyardgrass plant response rating [11]: 0
Sedge, Umbrella plant response rating [12]: 0
Rice plant response rating [13]: 0
Ducksalad plant response rating [14]: 0
